Results on two substances are retold here after US11279736B2, “Conformationally-preorganized, MiniPEG-containing gamma-peptide nucleic acids” (CARNEGIE MELLON UNIVERSITY, priority 2011, dated 2022).

[RMPγPNA-N] = PNA unit with R-MP-gamma backbone modification (N: the base)

A short description of data set [1]: Temperature-dependent CD measurements of PNA oligomers. In kind it is physicochemical. The settings on record: 80° C.; 5 μM oligomer, 10 mM sodium phosphate buffer pH 7.4. How it is done:
FIG. 1A illustrates CD spectra of PNA5 and PNA2 (Inset) as a function of temperature. Melting transition (Tm) of PNA2 through 5 as determined by CD, monitored at 260 nm. The oligomer concentration was 5 μM, prepared in 10 mM sodium phosphate buffer at pH 7.4.

Data set [2] deals with immobilized complementary DNA. Nature of the data set: Surface plasmon resonance (SPR) hybridization kinetics. In kind it is binding. The settings on record: for association rate constant ka / dissociation rate constant kd: 1:1 binding model; for dissociation rate constant kd: † values approach limits of detection. How it is done:
FIG. 4 illustrates surface plamon resonance (SPR) sensorgrams (solid black lines) and fits (dotted lines) for hybridization of PNA probes to immobilized complementary DNA. Solutions contained 30 nM PNA. Error bars at t=420 sec illustrate standard deviations for three separate trials.
Surface plasmon resonance (SPR) analysis is used to study the hybridization kinetics of ^R-MPγPNA-DNA and ^R-MPγPNA-RNA duplexes. Briefly, SPR was performed as follows. According to one embodiment, the PNA probe was immobilized to the chip while the DNA target was captured from solution. In another embodiment, a biotinylated version of the DNA target is immobilized on a streptavidin-conjugated, carboxymethylated dextran chip at a relatively low surface density (ca. 100 response units) of DNA targets to limit mass transport effects on the association kinetics. Solutions containing 10-50 nM PNA oligomers are allowed to flow over the chip for about 420 seconds, at which point the flow is switched to a PNA-free buffer to allow net dissociation of the hybridized PNA.
Background: SPR reads the build-up and loss of mass on a sensor chip optically.

The subject of a further data set is complementary DNA strand. Nature of the data set: UV-melting / van't Hoff analysis of PNA-DNA hybrid duplexes. In kind it is binding. The settings on record: PNA-DNA duplex; for −ΔG° / −ΔH° / −ΔTS°: averages of three trials. As for the experimental part:
(§1) FIGS. 2A-2B illustrate UV-melting profiles of PNA-DNA (FIG. 2A) and PNA-RNA (FIG. 2B) hybrid duplexes at a strand concentration of […] each in 10 mM sodium phosphate buffer at pH 7.4. While both the heating and cooling runs were performed because they both have nearly identical profiles UV-melting for only the heating runs are shown.
UV-melting experiments were performed to determine the effect of MP on the thermal stability of PNA oligomers following hybridization to DNA or an RNA. FIG. 3A illustrates that the incorporation of a single miniPEG side-chain stabilized a PNA-DNA duplex by 4° C. […] However, increase in thermal stability tapers off to a value of about 2.3° C. per unit for the fully-modified oligomer, that is an oligomer made up of R-MP-γPNA groups only (e.g., PNA5).
(§2) Further insights related to the contribution of miniPEG to the stability of the PNA-DNA duplex was obtained from van′t Hoff analysis. Data in Table 2 show the thermodynamic parameters associated with hybridization of PNA1 through 5 to a complementary DNA or RNA strand.

The next data set concerns complementary RNA strand. Nature of the data set: UV-melting / van't Hoff analysis of PNA-RNA hybrid duplexes. In kind it is binding. As for the experimental part: as §1
A similar pattern is observed for a R-MP-γPNA-RNA duplex, but the observed increase in thermal stability is lower for a R-MP-γPNA-RNA duplex as compared to a R-MP-γPNA-DNA duplex (FIG. 3B). The enhancement in thermal stability of a R-MP-γPNA-RNA duplex is only 3° C. for the first R-MP-γPNA-monomer that is incorporated into the PNA oligomer and this gain in thermal stability reduces to about 1.2° C. per R-MP-γPNA monomer for an oligomer made entirely R-MP-γPNA (PNA5). In contrast the gain in thermal stability is about 2.3° C./unit for R-MP-γPNA-DNA duplexes.
as §2

For data set [3], the system named is DNA: 3′-[…]-5, X = A, C, G, T (SEQ ID NO: 11). Nature of the data set: Sequence mismatch discrimination, thermal stability of PNA-DNA duplexes. In kind it is binding. How it is done: (§3) CD, NMR, and X-ray data have shown that γPNAs derived from L-amino acids adopt a right-handed helix, and that the helix becomes more rigid as more γ-chiral units are added in the backbone. One would therefore expect a fully-modified PNA5 to hybridize to DNA and RNA targets with greater sequence selectivity than PNA1. To verify this hypothesis, thermal stabilities of PNA5-DNA and PNA5-RNA duplexes containing perfectly-matched (PM) and single-base mismatched (MM) targets were determined and compared to those from an earlier study with PNA1-DNA and PNA1-RNA duplexes. […] The ΔTm ranges from −17 to −21° C. for PNA5-DNA and −16 to −20° C. for PNA5-RNA containing a single-base mismatch (X=C, G, T), as compared to −10 to −14° C. for PNA1-DNA and −11 to −18° C. for PNA1-RNA duplex (Table 4). The level of sequence discrimination is greater for PNA5-DNA than for PNA1-DNA, and similar, if not slightly better, for PNA5-RNA as compared to PNA1-RNA.

Data set [4] relates to RNA: 3′-CGUACAXACU-5, X = A, C, G, U (SEQ ID NO: 12). Nature of the data set: Sequence mismatch discrimination, thermal stability of PNA-RNA duplexes. It is filed as binding. How it is done: as §3
Where [5] appears, read: PNA-RNA duplex, 298 K, UV-melting curve fitting.

By Kd is commonly meant the equilibrium constant for the complex coming apart. As usually defined, the Tm is the temperature at the midpoint of the melting transition.

Turning to “H-GCATGTTTGA-NH2 [PNA2] (PNA; 1 R-MP-gamma unit; C-terminal amide; modified_base (6)..(6) R-MP-gamma-backbone modified nucleotide)”, in data set [1], the “CD profile / base-stacking at high temperature” value is listed as “completely denatured”. Also, in data set [2] (SPR, 30 nM PNA), the “association kinetics relative to the unmodified PNA” value is reported as “approximately twice as fast”. For the same substance, in data set [2] (SPR), the “association rate constant ka” value turned out to be 970000 M⁻¹ s⁻¹ and the “dissociation rate constant kd” value was 0.00041 s⁻¹. In addition, the Kd in data set [2] (SPR, ratio of dissociation and association rate constants, † values uncertain, read-out: equilibrium dissociation constant Kd) stood at 0.42 nM. The same substance registered a Kd in the data set on complementary DNA strand (298 K, UV melting) of 0.32 nM. Moreover, in the data set on complementary DNA strand (298 K), the “−ΔG°” value stood at 12.9 ± 0.24 kcal/mol, the “−ΔH°” value turned out to be 76.2 ± 4.3 kcal/mol and the “−ΔTS°” value is 62.9 ± 3.82 kcal/mol. Further, in the data set on complementary RNA strand (setting [5]), binding was characterised by a dissociation constant (Kd) of 0.0012 nM, the “−ΔG°” value was 16.3 kcal/mol, the “−ΔH°” value is 79.6 kcal/mol and the “−ΔTS°” value worked out at 55.4 kcal/mol.
As to “H-GCATGTTTGA-NH2 [PNA5] (all [RMPγPNA-N], methylation of C not given here; C-terminal amide)”, the “CD profile / base-stacking at high temperature” value in data set [1] was “distinct CD profile”. The Tm is 47 °C in data set [3] (C<>T mismatch); 48 °C in data set [3] (G<>T mismatch); 51 °C in data set [3] (T(U)<>T mismatch); 68 °C in data set [3] (X = A (A-T perfect match)); 48 °C in data set [4] (C<>T mismatch); 52 °C in data set [4] (G<>T mismatch). Besides, the Tm in data set [4] (T(U)<>T mismatch) was determined as 48 °C; in data set [4] (X = A (A-T perfect match)), 68 °C. For the same substance, the “ΔTm between the perfect match and mismatch” value in data set [3] (C<>T mismatch) is on record as “(−21) ° C”; in data set [3] (G<>T mismatch), “(−20) ° C”; in data set [3] (T(U)<>T mismatch) it was “(−17) ° C”; in data set [4] (C<>T mismatch) it was “(−20) ° C”; in data set [4] (G<>T mismatch), “(−16) ° C”; in data set [4] (T(U)<>T mismatch), “(−20) ° C”. Also, the “ΔTm, single-base mismatch (X=C, G, T)” value in data set [3] (range over mismatches) is −17 to −21 °C; in data set [4] (range over mismatches), −16 to −20 °C. For the same substance, the “association rate constant ka” value in data set [2] (SPR) was 800000 M⁻¹ s⁻¹. Besides, in data set [2] (SPR), the “dissociation rate constant kd” value is recorded as 0.4 × 10^−4 ^† s^−1. Besides, in data set [2] (Table 3 versus Table 2, DNA target), the “SPR-derived Kd relative to Kd determined by UV melting experiments” value was 1200 fold. Moreover, the “increase in thermal stability per miniPEG unit” value with complementary DNA strand (UV-melting) is “about 2.3 °C per unit”. Moreover, the “−ΔG°” value in the data set on complementary DNA strand (298 K) came to 18.6 ± 0.48 kcal/mol; with complementary RNA strand (setting [5]) it was 18.6 kcal/mol. Also, the “−ΔH°” value was found to be 88.9 ± 2.63 kcal/mol in the data set with complementary DNA strand (298 K) and 87.2 kcal/mol in the data set on complementary RNA strand (setting [5]). The “−ΔTS°” value in the data set with complementary DNA strand (298 K) turned out to be 70.3 ± 2.39 kcal/mol; in the data set on complementary RNA strand (setting [5]), 68.6 kcal/mol. For the same substance, the “gain in thermal stability per R-MP-γPNA monomer” value with complementary RNA strand (PNA-RNA duplex, UV-melting) is “about 1.2 °C per R-MP-γPNA monomer”. Besides, the “differential Tm (ΔTm), RNA versus DNA binding” value in the data set with complementary RNA strand (duplex with RNA compared to duplex with DNA) is recorded as “identical thermal stability”.
